From patent US6511978B1, “Pyrrole derivatives useful for farnesyl transferase inhibitors and their preparations” (LG Life Sciences, Ltd., priority 1999, dated 2003)
pIC50: −log10 of the molar value.

Columns and labels:
Ras farnesyl transferase [1] = molecular target: T1, Ras farnesyl transferase (Rattus norvegicus, UniProt Q02293+Q04631); assay: In vivo (intracellular) Ras farnesylation inhibition in Rat2 cell line expressing C-Harvey-Ras; format: cell-based; conditions: Rat2 cells expressing C-Harvey-Ras; concentration inhibiting 50% of farnesyl binding; read-out: H-Ras CIC50
T1 construct: endogenous in cells; host or cells: Rat2 fibroblasts transformed with C-Harvey-Ras or with the H-Ras/K-Ras polybasic-domain fusion
Protocol: (§1) In the present experiment, Rat2 cell line which expresses C-Harvey-Ras protein having transforming activity and Rat2 cell line(Korean patent application No. 97-14409) which is transformed with fused protein of H-Ras substituted with polybasic lysine domain at C-terminus of K-Ras were used. The experiment was performed by the modified Declue's method(Declue. J. E. et al., Cancer Research, 51, 712, 1991) as follows.
(§2) 3×10^5 cells of transformed Rat2 fibroblast cell line were sprayed on 60 mm cell cultivation dish and cultivated for 48 hours in a cell incubator at 37° C. and after 50% or more of density was reached, it was treated with the test compounds. The compound according to the present invention dissolved in dimethylsulfoxide(DMSO) was used. 1% concentration of dimethylsulfoxide was used in both control and test groups. After 4 hours from the treatment with the compound, methionine labeled with 150 μCi of radioactive isotope [^35S] per 1 ml of medium was added and after cultivating for 20 hours, the cells were washed with physiological saline water. The cells were lysed using 1 ml of cold cell lysis buffer solution(50 mM of Sodium HEPES buffer solution containing 5 mM of magnesium chloride, 1 mM of DTT, 1% NP 40, 1 mM of EDTA, 1 mM of PMSF, 2 μM of leupeptin, 2 μM of pepstatin A and 2 μM of antipain) and the supernatant wherein the cells were lysed was obtained by high-velocity centrifugation of 12,000 g×5 minutes. The amount of radioisotope in the supernatant was measured and standardized to obtain a quantitative result in immunoprecipitation reaction and then, Y13-259, a monoclonal antiboby specifically binding to Ras protein(see: Furth, M. E. et al., J. Virol, 43, 294, 1982) was added and reacted for 15 hours at 4° C. Protein A(combined with goat anti-murine immunoglobulin antibody)-agarose suspension was added to the solution and reacted for 1 hour at 4° C. and then, to remove the unspecific binding product, immunoprecipitates were washed with a buffer solution (50 mM Tris chloride buffer solution containing 50 mM of sodium chloride, 0.5% of sodium dioxycholate, 0.5% of NP 40 and 0.1% of SDS). The precipitates were added to a buffer solution for electrophoresis and boiled and then, electrophoresis was performed using 13.5% of SDS polyacrylamide gel. After electrophoresis, the gel was fixed and dried. Then, the gel was exposed to X-ray film, developed and printed. From the result of the experiment, intensities of band of protein combined with or without farnesyl of Ras protein was measured, and the concentration of the test compound inhibiting 50% of farnesyl binding was defined as CIC50, an in vivo Ras farnesyl transferase inhibitory activity. IC50 means the data from Experimental 1 and CIC50 means the data from Experimental 2.

Ras farnesyl transferase [2] = molecular target: T1, Ras farnesyl transferase; assay: In vivo (intracellular) Ras farnesylation inhibition in Rat2 cell line transformed with H-Ras fused with polybasic lysine domain of K-Ras; format: cell-based; conditions: Rat2 cells transformed with H-Ras/K-Ras polybasic domain fused protein; concentration inhibiting 50% of farnesyl binding; read-out: K-Ras CIC50
Protocol: as §1, §2

Ras farnesyl transferase [3] = molecular target: T2, Ras farnesyl transferase (Homo sapiens, UniProt P49354+P49356); assay: Ras farnesyl transferase enzyme inhibition, H-Ras substrate; format: biochemical; conditions: H-Ras substrate protein; recombinant farnesyl transferase; 30 minutes at 37° C.
T2 construct: made in house
From the text: (§3) In the present experiment, the improved Pompliano's method (see: Pompliano et al., Biochemistry, 31, 3800, 1992) was applied. Specifically, Ras farnesyl transferase produced by genetic recombination techniques was used, and fused protein of H-Ras(H-Ras-CVLS) substituted with polybasic lysine domain at C-terminus of K-Ras (see: Korean Patent Appln. No. 97-14409) was used as a substrate after it had been purified according to the known method(see, Chung et al., Biochimica et Biophysica Acta, 1129, 278, 1992).
(§4) The enzyme reaction was performed in 50 μl of 50 mM Sodium HEPES buffer solution containing 25 mM of potassium chloride, 25 mM of magnesium chloride, 10 mM of DTT and 50 μM of zinc chloride. 1.5 μM of Ras substrate protein, 0.15 μM of tritium-farnesylpyrophosphate and 4.5 nM of farnesyl transferase were used. More specifically, in the initial step, farnesyl transferase was added to the above buffer solution, reaction was maintained for 30 minutes at 37° C. and then the reaction was stopped by adding 1 ml of ethanol solution containing 1M HCl. The formed precipitates were adsorbed to GF/B filter using Hopper harvestor(Hopper #FH 225V) for filter-binding, washed with ethanol, and then radioactivity of the dried filter was measured using LKB β counter. Enzyme titer was measured in the unsaturated state of substrate where the concentration of Ras substrate protein and farnesyl transferase have quantitative relationship. The compound according to the present invention dissolved in dimethyl sulfoxide(DMSO) was added to the reaction solution in an amount of less than 5% of the total reaction solution, and then the enzyme inhibitory activity thereof was measured. The enzyme inhibitory activity was represented by percentage of the amount of farnesyl incorporated into the Ras substrate protein in the presence of the test compound to that in the absence of the test compound. IC50 of the test compound was defined as the concentration at which 50% of the enzyme activity was inhibited. To evaluate the selective enzyme inhibitory activity of the compound according to the present invention, inhibitory activity on geranylgeranyl transferase was measured. Geranylgeranyl transferase was purified from bovine brain according to the modified Schaber's method(Schaber et al., J. Biol. Chem. 265, 14701, 1990), and substantially the same experimental procedure as that for farnesyl transferase was performed on geranylgeranyl pyrophosphate and Ras-CVIL substrate protein.

Ras farnesyl transferase [4] = molecular target: T2, Ras farnesyl transferase; assay: Ras farnesyl transferase enzyme inhibition, K-Ras substrate (H-Ras fused with polybasic lysine domain of K-Ras); format: biochemical; conditions: K-Ras substrate (fused protein of H-Ras with polybasic lysine domain of K-Ras); recombinant farnesyl transferase
From the text: as §3, §4

1-[1-(3-benzyloxypropyl)-2-methyl-1H-imidazol-5-ylmethyl]-3-[N-(2-methoxyethyl)-N-methyl]carbamoyl-4-(naphthalen-1-yl)-1H-pyrrole [Example 34]
pIC50 (Ras farnesyl transferase [1]): < 7.90
pIC50 (Ras farnesyl transferase [2]): < 5.00
pIC50 (Ras farnesyl transferase [3]): > 8.40
pIC50 (Ras farnesyl transferase [4]): > 8.33

COCCN(C)C(=O)c1cn(Cc2cncn2CCCOCc2ccccc2)cc1-c1cccc2ccccc12 [Example 1, 1-[1-(3-benzyloxypropyl)-1H-imidazol-5-yl]methyl-3-[N-(2-methoxyethyl)-N-methyl]carbamoyl-4-(naphthalen-1-yl)-1H-pyrrole]
pIC50 (Ras farnesyl transferase [1]): > 7.60
pIC50 (Ras farnesyl transferase [2]): 4.30 to 5.00
pIC50 (Ras farnesyl transferase [3]): > 8.00
pIC50 (Ras farnesyl transferase [4]): > 8.00

O=C(c1cn(Cc2cncn2CCCOCc2ccccc2)cc1-c1cccc2ccccc12)N1CCOCC1 [Example 2, 1-[1-(3-benzyloxypropyl)-1H-imidazol-5-yl]methyl-3-(morpholin-4-yl)carbonyl-4-(naphthalen-1-yl)-1H-pyrrole]
pIC50 (Ras farnesyl transferase [1]): > 7.60
pIC50 (Ras farnesyl transferase [2]): 4.30 to 5.00
pIC50 (Ras farnesyl transferase [3]): > 8.00
pIC50 (Ras farnesyl transferase [4]): > 8.00

CN1CCN(C(=O)c2cn(Cc3cncn3CCCOCc3ccccc3)cc2-c2cccc3ccccc23)CC1 [Example 3, 1-[1-(3-benzyloxypropyl)-1H-imidazol-5-yl]methyl-3-(4-methylpiperazin-1-yl)carbonyl-4-(naphthalen-1-yl)-1H-pyrrole]
pIC50 (Ras farnesyl transferase [1]): > 7.60
pIC50 (Ras farnesyl transferase [2]): 4.30 to 5.00
pIC50 (Ras farnesyl transferase [3]): > 8.00
pIC50 (Ras farnesyl transferase [4]): > 8.00

COCCN(C)C(=O)c1cn(Cc2cncn2CCCOc2ccccc2)cc1-c1cccc2ccccc12 [Example 4, 3-[N-(2-methoxyethyl)-N-methyl]carbamoyl-4-(naphthalen-1-yl)-1-[1-(3-phenoxypropyl)-1H-imidazol-5-yl]methyl-1H-pyrrole]
pIC50 (Ras farnesyl transferase [1]): > 7.60
pIC50 (Ras farnesyl transferase [2]): 4.00 to 5.00
pIC50 (Ras farnesyl transferase [3]): > 8.00
pIC50 (Ras farnesyl transferase [4]): > 8.00

COCCN(C)C(=O)c1cn(Cc2cncn2CCCSc2ccccc2)cc1-c1cccc2ccccc12 [Example 5, 3-[N-(2-methoxyethyl)-N-methyl]carbamoyl-4-(naphthalen-1-yl)-1-[1-(3-thiophenoxypropyl)-1H-imidazol-5-yl]methyl-1H-pyrrole]
pIC50 (Ras farnesyl transferase [1]): > 7.60
pIC50 (Ras farnesyl transferase [2]): 4.30 to 5.00
pIC50 (Ras farnesyl transferase [3]): > 8.00
pIC50 (Ras farnesyl transferase [4]): > 8.00

O=C(c1cn(Cc2cncn2CCCOc2ccccc2)cc1-c1cccc2ccccc12)N1CCOCC1 [Example 6, 3-(morpholin-4-yl)carbonyl-4-(naphthalen-1-yl)-1-[1-(3-phenoxypropyl)-1H-imidazol-5-yl]methyl-1H-pyrrole]
pIC50 (Ras farnesyl transferase [1]): > 7.60
pIC50 (Ras farnesyl transferase [2]): 4.30 to 5.00
pIC50 (Ras farnesyl transferase [3]): > 8.00
pIC50 (Ras farnesyl transferase [4]): > 8.00

CN1CCN(C(=O)c2cn(Cc3cncn3CCCOc3ccccc3)cc2-c2cccc3ccccc23)CC1 [Example 7, 3-(4-methylpiperazin-1-yl)carbonyl-4-(naphthalen-1-yl)-1-[1-(3-phenoxypropyl)-1H-imidazol-5-yl]methyl-1H-pyrrole]
pIC50 (Ras farnesyl transferase [1]): > 7.60
pIC50 (Ras farnesyl transferase [2]): 4.30 to 5.00
pIC50 (Ras farnesyl transferase [3]): > 8.00
pIC50 (Ras farnesyl transferase [4]): > 8.00

CCSCCCn1cncc1Cn1cc(C(=O)N(C)CCOC)c(-c2cccc3ccccc23)c1 [Example 8, 3-[N-(2-methoxyethyl)-N-methyl]carbamoyl-4-(naphthalen-1-yl)-1-[1-(3-thioethoxypropyl)-1H-imidazol-5-yl]methyl-1H-pyrrole]
pIC50 (Ras farnesyl transferase [1]): < 7.60
pIC50 (Ras farnesyl transferase [2]): 4.30 to 5.00
pIC50 (Ras farnesyl transferase [3]): > 8.00
pIC50 (Ras farnesyl transferase [4]): > 8.00

COCCN(C)C(=O)c1cn(Cc2cncn2CCCN2CCOCC2)cc1-c1cccc2ccccc12 [Example 9, 3-[N-(2-methoxyethyl)-N-methyl]carbamoyl-1-{1-[3-(morpholin-4-yl)propyl]-1H-imidazol-5-yl}methyl-4-(naphthalen-1-yl)-1H-pyrrole]
pIC50 (Ras farnesyl transferase [1]): > 7.60
pIC50 (Ras farnesyl transferase [2]): 4.30 to 5.00
pIC50 (Ras farnesyl transferase [3]): > 8.00
pIC50 (Ras farnesyl transferase [4]): > 8.00

COCCN(C)C(=O)c1cn(Cc2cncn2CCc2cccs2)cc1-c1cccc2ccccc12 [Example 10, 3-[N-(2-methoxyethyl)-N-methyl]carbamoyl-4-(naphthalen-1-yl)-1-{1-[2-(thiophen-2-yl)ethyl]-1H-imidazol-5-yl}methyl-1H-pyrrole]
pIC50 (Ras farnesyl transferase [1]): < 7.60
pIC50 (Ras farnesyl transferase [2]): 4.30 to 5.00
pIC50 (Ras farnesyl transferase [3]): > 8.00
pIC50 (Ras farnesyl transferase [4]): > 7.00

CN1CCN(C(=O)c2cn(Cc3cncn3CCc3cccs3)cc2-c2cccc3ccccc23)CC1 [Example 11, 3-(4-methylpiperazin-1-yl)carbonyl-4-(naphthalen-1-yl)-1-{1-[2-(thiophen-2-yl)ethyl]-1H-imidazol-5-yl}methyl-1H-pyrrole]
pIC50 (Ras farnesyl transferase [1]): < 7.60
pIC50 (Ras farnesyl transferase [2]): 4.30 to 5.00
pIC50 (Ras farnesyl transferase [3]): > 8.00
pIC50 (Ras farnesyl transferase [4]): > 7.00

CN1CCN(C(=O)c2cn(Cc3cncn3Cc3ccco3)cc2-c2cccc3ccccc23)CC1 [Example 12, 1-[1-(furan-2-yl)methyl-1H-imidazol-5-yl]methyl-3-(4-methylpiperazin-1-yl)carbonyl-4-(naphthalen-1-yl)-1H-pyrrole]
pIC50 (Ras farnesyl transferase [1]): < 7.60
pIC50 (Ras farnesyl transferase [2]): 4.30 to 5.00
pIC50 (Ras farnesyl transferase [3]): > 8.00
pIC50 (Ras farnesyl transferase [4]): > 7.00

COCCN(C)C(=O)c1cn(Cc2cncn2C2CCN(Cc3ccccc3)CC2)cc1-c1cccc2ccccc12 [Example 13, 1-[1-(1-benzylpiperidin-4-yl)-1H-imidazol-5-yl]methyl-3-[N-(2-methoxyethyl)-N-methyl]carbamoyl-4-(naphthalen-1-yl)-1H-pyrrole]
pIC50 (Ras farnesyl transferase [1]): > 7.60
pIC50 (Ras farnesyl transferase [2]): 4.30 to 5.00
pIC50 (Ras farnesyl transferase [3]): > 8.00
pIC50 (Ras farnesyl transferase [4]): > 8.00

O=C(c1cn(Cc2cncn2C2CCN(Cc3ccccc3)CC2)cc1-c1cccc2ccccc12)N1CCOCC1 [Example 14, 1-[1-(1-benzylpiperidin-4-yl)-1H-imidazol-5-yl]methyl-3-(morpholin-4-yl)carbonyl-4-(naphthalen-1-yl)-1H-pyrrole]
pIC50 (Ras farnesyl transferase [1]): > 7.60
pIC50 (Ras farnesyl transferase [2]): 4.30 to 5.00
pIC50 (Ras farnesyl transferase [3]): > 8.00
pIC50 (Ras farnesyl transferase [4]): > 8.00

Cc1ncc(Cn2cc(C(=O)N3CCN(C)CC3)c(-c3cccc4ccccc34)c2)n1Cc1ccc2c(c1)OCO2 [Example 15, 1-[2-methyl-1-(3,4-methylenedioxybenzyl)-1H-imidazol-5-ylmethyl]-3-(4-methylpiperazin-1-yl)carbonyl-4-(naphthalen-1-yl)-1H-pyrrole]
pIC50 (Ras farnesyl transferase [1]): < 7.60
pIC50 (Ras farnesyl transferase [2]): < 5.00
pIC50 (Ras farnesyl transferase [3]): > 8.22
pIC50 (Ras farnesyl transferase [4]): > 7.89
